≈ marks a conversion by molar mass, not a printed value. Structures can show the parent of a compound that is named as a salt. Where two headings read alike, the source gives them in different places.
Key:
[1] = test system: Piricularia oryzae (PIR); experiment: microbe, parasite or virus in culture; format: cell-based; settings: read-out: % Control at 25 ppm PIR
[2] = test system: Staphylococcus aureus (SAUR); experiment: Minimum inhibitory concentration (MIC), broth two-fold serial dilution test; settings: Staphylococcus aureus, read-out: MIC (G+) SAUR, M9G (minimal salts media with glucose)
[3] = test system: Pseudomonas aerugenosa (PSAE); experiment: as above; settings: Pseudomonas, read-out: MIC (G-) PSAE, M9G (minimal salts media with glucose)
[4] = test system: Aspergillus niger (ANIG); experiment: as above; format: cell-based; settings: Aspergillus niger
[5] = test system: Xanthomonas campestris (XAN); experiment: In-vitro plant fungicide test; format: cell-based; settings: Xanthomonas campestris; 25 ppm; Table IVa; read-out: % Control at 25 ppm XAN
[6] = test system: Botrytis cinerea (BOC); experiment: In-vitro plant fungicide test; format: cell-based; settings: Botrytis cinerea, 25 ppm; Table IVa; *=Phytotoxic; read-out: % Control at 25 ppm BOC
[7] = test system: Septoria nodorum (SEP); experiment: In-vitro plant fungicide test; format: cell-based; settings: Parastagonospora nodorum, 25 ppm; Table IVa; read-out: % Control at 25 ppm SEP
[8] = test system: THREE FUNGI; experiment: MIC test against three fungi in Mycophile Broth, pH 5.0, read after 8 days (Table VII); format: cell-based; settings: 192 h
[9] = test system: Phytophthora capsici (PHY); experiment: In-vitro plant fungicide test; format: cell-based; settings: Phytophthora capsici; 25 ppm; Table IVa; read-out: % Control at 25 ppm PHY
[10] = test system: Pseudomonas fluorescens (PSFL); experiment: Minimum inhibitory concentration (MIC), broth two-fold serial dilution test; settings: Pseudomonas fluorescens, read-out: MIC (G-) PSFL, M9G (minimal salts media with glucose)
Excerpt: When the test is ready to be done, each vessel in the dilution series, except the first vessel, contains an equal volume of compound free broth. The first vessel contains twice the volume of broth with the starting concentration of test compound. One half of the broth from the first vessel is transferred to the second vessel. After being mixed, one half the resulting volume is removed from the second vessel and transferred to the third vessel. The entire cycle is repeated sufficiently to give a series of concentrations amounting to 500, 250, 125, 63, 31, 16, 8, and 4 ppm (or 100, 50, 25, 12.5, 6.2, 3.1, 1.6, and 0.8), respectively.
Each vessel is then inoculated with a cell suspension of the appropriate test organism. Bacteria are grown in broth, fungi on agar slants for a time and at a temperature appropriate to the species being tested, and algae are a mixture of green algae and blue-green bacteria grown in a nutrient media. At the end of the growth period, in the case of bacteria, the broth is vortexed to disperse the cells.
The vessels are then incubated at the appropriate temperature. After the incubation, the vessels are examined for growth/no growth.

[11] = test system: Pythium ultimum (PYU); experiment: In-vitro plant fungicide test; format: cell-based; settings: Globisporangium ultimum; 25 ppm; Table IVa; read-out: % Control at 25 ppm PYU
[12] = test system: Rhizoctonia solani (RHI); experiment: In-vitro plant fungicide test; format: cell-based; settings: Rhizoctonia solani; 25 ppm; Table IVa; read-out: % Control at 25 ppm RHI
[13] = test system: Aureobasidium pullulans (APUL); experiment: Minimum inhibitory concentration (MIC), broth two-fold serial dilution test; format: cell-based; settings: Aureobasidium pullulans
[14] = test system: Cochliobolus sativus (HEL); experiment: In-vitro plant fungicide test; format: cell-based; settings: Bipolaris sorokiniana, 25 ppm; Table IVa; *=Phytotoxic; read-out: % Control at 25 ppm HEL
[15] = test system: Fusarium roseum (FUS); experiment: In-vitro plant fungicide test; format: cell-based; settings: Fusarium sambucinum, read-out: % Control at 25 ppm FUS, 25 ppm; Table IVa; *=Phytotoxic
[16] = test system: Escherichia coli (ECOL); experiment: Minimum inhibitory concentration (MIC), broth two-fold serial dilution test; settings: Escherichia coli, read-out: MIC (G-) ECOL, M9G (minimal salts media with glucose)
[17] = Table IIIc, iodopropargyl esters of peptides
[18] = Aspergillus niger, serial dilutions from 50 ppm, read after 8 days of incubation, read-out: MIC ANIG
[19] = Aureobasidium pullulans, serial dilutions from 50 ppm, read after 8 days of incubation, read-out: MIC APUL
[20] = Gloeophyllum trabeum, serial dilutions from 50 ppm, read after 8 days of incubation, read-out: MIC GTRA
[21] = read-out: MIC (F) ANIG, M9G (minimal salts media with glucose), Table IIIa
[22] = Aspergillus niger, pH 5, read-out: MIC ANIG, Aspergillus niger, serial dilutions from 50 ppm, read after 8 days of incubation
[23] = Aureobasidium pullulans, pH 5, read-out: MIC APUL, Aureobasidium pullulans, serial dilutions from 50 ppm, read after 8 days of incubation
[24] = Gloeophyllum trabeum, pH 5, read-out: MIC GTRA, Gloeophyllum trabeum, serial dilutions from 50 ppm, read after 8 days of incubation
[25] = read-out: MIC (F) APUL, M9G (minimal salts media with glucose), Table IIIa
[26] = M9G (minimal salts media with glucose), Table IIIa, read-out: MIC (F) ANIG
[27] = M9G (minimal salts media with glucose), Table IIIa, read-out: MIC (F) APUL

Compound | inhibition of growth at 25 ppm [1] | inhibition of growth at 25 ppm [5] | inhibition of growth at 25 ppm [6] | inhibition of growth at 25 ppm [7] | MIC [8, 18] | MIC [8, 19] | MIC [8, 20] | inhibition of growth at 25 ppm [9] | inhibition of growth at 25 ppm [11] | inhibition of growth at 25 ppm [12] | inhibition of growth at 25 ppm [14] | inhibition of growth at 25 ppm [15] | MIC ([2]; Table IIIa) | MIC ([3]; Table IIIa) | MIC [4, 21] | MIC [8, 22] | MIC [8, 23] | MIC [8, 24] | MIC ([10]; Table IIIa) | MIC ([16]; Table IIIa) | also measured
C[C@H](NC(=O)OC(C)(C)C)C(=O)N[C@@H](COCc1ccccc1)C(=O)OCC#CI [Compound 14, N-t-butoxycarbonyl-L-alanyl-O-benzyl-L-serine iodopropargyl ester] | 100% | 0% | 0% | 0% | 50 µg/mL (≈ 94.3 µM) | > 50 µg/mL | 12.5 µg/mL (≈ 23.6 µM) | 75% | 0% | 90% | 50% | 100% |  |  |  |  |  |  |  |  | MIC [2, 17]: 100 µg/mL; MIC [3, 17]: 50 µg/mL; MIC ([4]; M9G (minimal salts media with glucose), Table IIIc, iodopropargyl esters of peptides, read-out: MIC (F) ANIG): 6 µg/mL; MIC [10, 17]: 100 µg/mL; MIC ([13]; M9G (minimal salts media with glucose), Table IIIc, iodopropargyl esters of peptides, read-out: MIC (F) APUL): < 0.8 µg/mL; MIC [16, 17]: > 100 µg/mL
N[C@@H](COCc1ccccc1)C(=O)OCC#CI [Compound 9, O-benzyl-L-serine iodopropargyl ester trifluoroacetate] | 100% | 0% | 100% | 100% |  |  |  | 100% | 100% | 100% | 100% | 100% | 500 µg/mL | 125 µg/mL | < 4 µg/mL | 25 µg/mL | 50 µg/mL | 12.5 µg/mL | 25 µg/mL | 64 µg/mL | MIC [13, 25]: < 4 µg/mL
CC(C)(C)OC(=O)N[C@@H](COCc1ccccc1)C(=O)OCC#CI [Compound 3, N-t-butoxycarbonyl-O-benzyl-L-serine iodopropargyl ester] | 100% | 0% | 0% | 100% | 25 µg/mL (≈ 54.4 µM) | 50 µg/mL (≈ 109 µM) | 3.2 µg/mL (≈ 6.97 µM) | 100% | 100% | 100% | 100% | 100% | 25 µg/mL | > 100 µg/mL |  |  |  |  | > 100 µg/mL | > 100 µg/mL | MIC [4, 26]: 3 µg/mL; MIC [13, 27]: < 0.8 µg/mL
C[C@H](NC(=O)OC(C)(C)C)C(=O)OCC#CI [Compound 2, N-t-butoxycarbonyl-L-alanine iodopropargyl ester] | 100% | 0% | 100% | 100% | 3.2 µg/mL (≈ 9.06 µM) | 25 µg/mL (≈ 70.8 µM) | 1.6 µg/mL (≈ 4.53 µM) | 100% | 100% | 100% | 100% | 100% | 50 µg/mL | > 100 µg/mL |  |  |  |  | 50 µg/mL | > 100 µg/mL | MIC [4, 26]: 3 µg/mL; MIC [13, 27]: 3 µg/mL
C[C@@H](OCc1ccccc1)[C@H](N)C(=O)OCC#CI [Compound 11, O-benzyl-L-threonine iodopropargyl ester trifluoroacetate] | 100% | 0% | 0% | 100% |  |  |  | 100% | 100% | 100% | 95% | 100% | > 100 µg/mL | > 100 µg/mL | 6.3 µg/mL | 25 µg/mL | 50 µg/mL | 12.5 µg/mL | > 100 µg/mL | > 100 µg/mL | MIC [13, 25]: 3 µg/mL
